Test system: 967376-340-R-J2-PDC multicell spheroid viability
Assay: Anticancer human tumor 967376-340-R-J2-PDC patient-derived colon adenocarcinoma cell line growth inhibition [PI3K]
Conditions: for IC50: curve of first compound; for viability, T/C: stronger effect = lower value
Method in brief: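 Tumor cells were combined with HUVEC and MSCs into spheroids, then dosed with PI3K-inhibitor combinations over half-log ranges capped near clinical Cmax or 10 microM.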

[1] = second compound 0.0316 µM, first compound 0.0316 µM
[2] = second compound 0.0316 µM, first compound 0.1 µM
[3] = second compound 0.0316 µM, first compound 0.316 µM
[4] = second compound 0.0316 µM, first compound 1 µM
[5] = second compound 0.0316 µM, first compound 3.16 µM
[6] = second compound 0.0316 µM, first compound 10 µM
[7] = second compound 0.1 µM, first compound 0.0316 µM
[8] = second compound 0.1 µM, first compound 0.1 µM
[9] = second compound 0.1 µM, first compound 0.316 µM
[10] = second compound 0.1 µM, first compound 1 µM
[11] = second compound 0.1 µM, first compound 3.16 µM
[12] = second compound 0.1 µM, first compound 10 µM
[13] = second compound 0.316 µM, first compound 0.0316 µM
[14] = second compound 0.316 µM, first compound 0.1 µM
[15] = second compound 0.316 µM, first compound 0.316 µM
[16] = second compound 0.316 µM, first compound 1 µM
[17] = second compound 0.316 µM, first compound 3.16 µM
[18] = second compound 0.316 µM, first compound 10 µM
[19] = second compound 1 µM, first compound 0.0316 µM
[20] = second compound 1 µM, first compound 0.1 µM
[21] = second compound 1 µM, first compound 0.316 µM
[22] = second compound 1 µM, first compound 1 µM
[23] = second compound 1 µM, first compound 3.16 µM
[24] = second compound 1 µM, first compound 10 µM
[25] = second compound 3.16 µM, first compound 0.0316 µM
[26] = second compound 3.16 µM, first compound 0.1 µM
[27] = second compound 3.16 µM, first compound 0.316 µM
[28] = second compound 3.16 µM, first compound 1 µM
[29] = second compound 3.16 µM, first compound 3.16 µM
[30] = second compound 3.16 µM, first compound 10 µM
[31] = second compound 10 µM, first compound 0.0316 µM
[32] = second compound 10 µM, first compound 0.1 µM
[33] = second compound 10 µM, first compound 0.316 µM
[34] = second compound 10 µM, first compound 1 µM
[35] = second compound 10 µM, first compound 3.16 µM
[36] = second compound 10 µM, first compound 10 µM
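Further: spheroids exposed to agents for 7 days before read-out.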
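Wherever viability, T/C is given: luminescence used as surrogate of cell viability.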

SMILES: C#Cc1c(F)ccc2cc(O)cc(-c3ncc4c(N5CC6CCC(C5)N6)nc(OCC56CCCN5CC(F)C6)nc4c3F)c12 (stereo not drawn) + CC(Nc1ncnc2nc[nH]c12)c1cc2cccc(Cl)c2c(=O)n1-c1ccccc1
- IC50 (second compound 0.0316 µM): > 10 µM
- IC50 (second compound 0.1 µM): > 10 µM
- IC50 (second compound 0.316 µM): > 10 µM
- IC50 (second compound 1 µM): > 10 µM
- IC50 (second compound 3.16 µM): > 10 µM
- IC50 (second compound 10 µM): > 10 µM
- viability, T/C [1]: 103%
- viability, T/C [2]: 113%
- viability, T/C [3]: 94.2%
- viability, T/C [4]: 85.8%
- viability, T/C [5]: 85.5%
- viability, T/C [6]: 53.8%
- viability, T/C [7]: 99.8%
- viability, T/C [8]: 110%
- viability, T/C [9]: 80.5%
- viability, T/C [10]: 97.5%
- viability, T/C [11]: 77%
- viability, T/C [12]: 88.9%
- viability, T/C [13]: 104%
- viability, T/C [14]: 97.2%
- viability, T/C [15]: 99.7%
- viability, T/C [16]: 90.6%
- viability, T/C [17]: 99.5%
- viability, T/C [18]: 78.8%
- viability, T/C [19]: 96.5%
- viability, T/C [20]: 110%
- viability, T/C [21]: 109%
- viability, T/C [22]: 93%
- viability, T/C [23]: 72.8%
- viability, T/C [24]: 70.8%
- viability, T/C [25]: 106%
- viability, T/C [26]: 92.4%
- viability, T/C [27]: 94.6%
- viability, T/C [28]: 71.2%
- viability, T/C [29]: 78.3%
- viability, T/C [30]: 71.8%
- viability, T/C [31]: 84.1%
- viability, T/C [32]: 76.8%
- viability, T/C [33]: 78.8%
- viability, T/C [34]: 61.6%
- viability, T/C [35]: 59.5%
- viability, T/C [36]: 61.5%

SMILES: C=CC(=O)N1CCN(c2nc(=O)n(-c3c(C)ccnc3C(C)C)c3nc(-c4c(O)cccc4F)c(F)cc23)C(C)C1 (stereo not drawn) + CC(Nc1ncnc2nc[nH]c12)c1cc2cccc(Cl)c2c(=O)n1-c1ccccc1
- IC50 (second compound 0.0316 µM): > 10 µM
- IC50 (second compound 0.1 µM): > 10 µM
- IC50 (second compound 0.316 µM): > 10 µM
- IC50 (second compound 1 µM): > 10 µM
- IC50 (second compound 3.16 µM): > 10 µM
- IC50 (second compound 10 µM): > 10 µM
- viability, T/C [1]: 95.8%
- viability, T/C [2]: 104%
- viability, T/C [3]: 99.1%
- viability, T/C [4]: 102%
- viability, T/C [5]: 96.6%
- viability, T/C [6]: 108%
- viability, T/C [7]: 123%
- viability, T/C [8]: 108%
- viability, T/C [9]: 97.7%
- viability, T/C [10]: 94.2%
- viability, T/C [11]: 106%
- viability, T/C [12]: 104%
- viability, T/C [13]: 105%
- viability, T/C [14]: 107%
- viability, T/C [15]: 107%
- viability, T/C [16]: 104%
- viability, T/C [17]: 86.7%
- viability, T/C [18]: 94.8%
- viability, T/C [19]: 107%
- viability, T/C [20]: 98.3%
- viability, T/C [21]: 100%
- viability, T/C [22]: 97.8%
- viability, T/C [23]: 105%
- viability, T/C [24]: 76.3%
- viability, T/C [25]: 79.7%
- viability, T/C [26]: 91.6%
- viability, T/C [27]: 81.2%
- viability, T/C [28]: 98%
- viability, T/C [29]: 96.2%
- viability, T/C [30]: 86.6%
- viability, T/C [31]: 75.7%
- viability, T/C [32]: 83.9%
- viability, T/C [33]: 75.4%
- viability, T/C [34]: 78.7%
- viability, T/C [35]: 94.4%
- viability, T/C [36]: 91.9%

SMILES: CC(Cn1ccc(-c2ccc(C#N)c(Cl)c2)n1)NC(=O)c1cc(C(C)O)[nH]n1 (stereo not drawn) + CC(Nc1ncnc2nc[nH]c12)c1cc2cccc(Cl)c2c(=O)n1-c1ccccc1
- IC50 (second compound 0.0316 µM): > 10 µM
- IC50 (second compound 0.1 µM): > 10 µM
- IC50 (second compound 0.316 µM): > 10 µM
- IC50 (second compound 1 µM): > 10 µM
- IC50 (second compound 3.16 µM): > 10 µM
- IC50 (second compound 10 µM): > 10 µM
- viability, T/C [1]: 95.7%
- viability, T/C [2]: 87.5%
- viability, T/C [3]: 89.4%
- viability, T/C [4]: 110%
- viability, T/C [5]: 87.5%
- viability, T/C [6]: 91.8%
- viability, T/C [7]: 117%
- viability, T/C [8]: 102%
- viability, T/C [9]: 104%
- viability, T/C [10]: 94.3%
- viability, T/C [11]: 81.8%
- viability, T/C [12]: 85.6%
- viability, T/C [13]: 112%
- viability, T/C [14]: 97.3%
- viability, T/C [15]: 86.7%
- viability, T/C [16]: 87.5%
- viability, T/C [17]: 89%
- viability, T/C [18]: 78.6%
- viability, T/C [19]: 107%
- viability, T/C [20]: 83.3%
- viability, T/C [21]: 91.9%
- viability, T/C [22]: 83.8%
- viability, T/C [23]: 83.9%
- viability, T/C [24]: 82.4%
- viability, T/C [25]: 95.4%
- viability, T/C [26]: 103%
- viability, T/C [27]: 91.5%
- viability, T/C [28]: 87.5%
- viability, T/C [29]: 69.2%
- viability, T/C [30]: 92.5%
- viability, T/C [31]: 91.5%
- viability, T/C [32]: 88.6%
- viability, T/C [33]: 90%
- viability, T/C [34]: 103%
- viability, T/C [35]: 83.7%
- viability, T/C [36]: 80.7%

SMILES: Cn1nccc1Nc1nccc(-c2ccn(C(CO)c3ccc(Cl)c(F)c3)c(=O)c2)n1 (stereo not drawn) + CC(Nc1ncnc2nc[nH]c12)c1cc2cccc(Cl)c2c(=O)n1-c1ccccc1
- IC50 (second compound 0.0316 µM): > 10 µM
- IC50 (second compound 0.1 µM): > 10 µM
- IC50 (second compound 0.316 µM): > 10 µM
- IC50 (second compound 1 µM): > 10 µM
- IC50 (second compound 3.16 µM): > 10 µM
- IC50 (second compound 10 µM): > 10 µM
- viability, T/C [1]: 97.2%
- viability, T/C [2]: 115%
- viability, T/C [3]: 101%
- viability, T/C [4]: 102%
- viability, T/C [5]: 101%
- viability, T/C [6]: 114%
- viability, T/C [7]: 103%
- viability, T/C [8]: 105%
- viability, T/C [9]: 95.9%
- viability, T/C [10]: 128%
- viability, T/C [11]: 128%
- viability, T/C [12]: 106%
- viability, T/C [13]: 107%
- viability, T/C [14]: 115%
- viability, T/C [15]: 114%
- viability, T/C [16]: 76.1%
- viability, T/C [17]: 104%
- viability, T/C [18]: 110%
- viability, T/C [19]: 96.2%
- viability, T/C [20]: 93.3%
- viability, T/C [21]: 87.8%
- viability, T/C [22]: 89%
- viability, T/C [23]: 99%
- viability, T/C [24]: 96.3%
- viability, T/C [25]: 87.5%
- viability, T/C [26]: 85.3%
- viability, T/C [27]: 80.1%
- viability, T/C [28]: 89.3%
- viability, T/C [29]: 99.7%
- viability, T/C [30]: 81.4%
- viability, T/C [31]: 95.7%
- viability, T/C [32]: 73.4%
- viability, T/C [33]: 86.3%
- viability, T/C [34]: 86.7%
- viability, T/C [35]: 76.2%
- viability, T/C [36]: 75.3%

Source: PubChem BioAssay AID1963962 (Molecular Pharmacology Branch, DTP, NCI, 2024)
